One series has as its system rats with PDD. As to the kind of experiment: Object recognition test in MPTP-HCl-induced PDD rats. The class given is in vivo, male Wistar rats. The procedure:
1-methyl-4-phenyl-1,2,3,6-tetrahydropyridine hydrochloride (MPTP-HCl) was used to induce PDD in the rats, and the therapeutic effect of ceftriaxone on PDD was evaluated via behavioral tests and histopathological assessment of the brain for the rats. The experiments of this example were conducted substantially according to the method as described in Ho Y. J. et al. (2011), Behav. Brain Res., 219:280-290.
The rats in the pathological control group, the preventive groups, and the treatment groups were anesthetized using Zoletil (Virbac, Carros, France; 20 mg/kg, intraperitoneal injection). Afterward, 0.5 M MPTP-HCl (in saline) was slowly infused bilaterally into the substantia nigra pars compacta (SNc) of the mesencephalon of each rat in the pathological control group, the preventive groups, and the treatment groups (0.21 mg/side) so as to induce the same to develop PDD.
(§1) 5 days before the MPTP-HCl injection, ceftriaxone (Sigma) was administered to the rats in the preventive groups 1,2 via intraperitoneal injection respectively at a daily dose of 100 mg/kg and at a daily dose of 200 mg/kg until the end of the 14th day after the MPTP-HCl injection. After the MPTP-HCl injection, ceftriaxone was administered to the rats in the treatment group 1 and the sham-operated groups 2,3 via intraperitoneal injection respectively at a daily dose of 200 mg/kg, at a daily dose of 100 mg/kg, and at a daily dose of 200 mg/kg, and saline was administered to the rats in the pathological control group and the sham-operated group 1 via intraperitoneal injection at a daily dose of 1 mL/kg. In addition, starting on the 3rd day after the MPTP-HCl injection, ceftriaxone was administered to the rats in the treatment groups 2,3 via intraperitoneal injection respectively at a daily dose of 100 mg/kg and at a daily dose of 200 mg/kg. The rats in the pathological control group, the treatment groups 1,2,3, and the sham-operated groups 1,2,3 were subjected to the once-a-day administration until the end of the 14th day after the MPTP-HCl injection.
Starting on the 8th day after the MPTP-HCl injection, the rats in each group were subjected to the T-maze test as described in section C of this example. Starting on the 12th day after the MPTP-HCl injection, the rats in each group were subjected to the object recognition test as described in section D of this example. On the 15th day after the MPTP-HCl injection, the rats in the treatment group 1, the sham-operated group 1, and the pathological control group were subjected to the histopathological analysis as described in section E of this example.
In order to examine the effect of ceftriaxone on the recognition and/or memory ability of the rats with PDD, starting on the 12th day after the MPTP-HCl injection, all of the rats in each group were subjected to an object recognition test lasting a total of three days.
The object recognition test is described as follows. The object recognition test included four trials. The first and second trilas were conducted respectively on the 12th and 13th after the MPTP-HCl injection, and the third and fourth trials were conducted on the 14th day after the MPTP-HCl injection. Each of the four trials lasted 5 minutes. The time interval between the first and second trials, and that between the second and third trials were 1 day. The time interval between the third and fourth trials was 5 minutes. At the beginning of each of the four trials, the respective rat was placed in the open box and adjacent to the corner C4 thereof. During the first, second, and third trials, the objects A1, A2, A3 were disposed in the open box for being able to be explored by the respective rat (see FIG. 2(A)). During the fourth trial, the object A3 was replaced with the object B (see FIG. 2(B)). During the object recognition test, a video camera installed above the open box was used to monitor and record the behavior of the respective rat.

The subject of a further series is normal rats. The series is described as follows: T-maze test (working memory) in sham-operated rats. The class given is in vivo, male Wistar rats. The settings on record: determined 10th day (FIG. 3). The procedure: The rats in the sham-operated groups were generally subjected to the same surgical procedures for the rats in the pathological control group, the preventive groups, and the treatment groups, except that an equal volume of saline was infused bilaterally into the SNc of the mesencephalon of rats in the shame-operated groups.
as §1, with “The rats in the pathological control group, the treatment groups 1,2,3, and the sham-operated groups 1,2,3 were subjected to the once-a-day administration until the end of the 14th day after the MPTP-HCl injection.” left out

Series [1] deals with 6-hydroxydopamine (6-OHDA)-lesioned rats. The following applies: 6-OHDA-lesioned rats (animal model of PD); cited from earlier work.

Turning to `CO/N=C(\C(=O)N[C@@H]1C(=O)N2C(C(=O)O)=C(CSc3nc(=O)c(=O)[nH]n3C)CS[C@H]12)c1csc(N)n1` [ceftriaxone, Ceftriaxone], the “percentage of exploration time spent on object B in the fourth trial versus object A3 in the third trial” value is recorded as “there is statistical significance” in the series on rats with PDD (Example 1 preventive group 1: 100 mg/kg daily i.p. from 5 days before MPTP-HCl, determined 14th day (FIG. 4)); “there is statistical significance” with rats with PDD (Example 1 preventive group 2: 200 mg/kg daily i.p. from 5 days before MPTP-HCl, determined 14th day (FIG. 4)); “there is statistical significance” in the series on rats with PDD (Example 1 treatment group 1: 200 mg/kg daily i.p. after MPTP-HCl injection to 14th day, determined 14th day (FIG. 4)); “there is statistical significance” with rats with PDD (Example 1 treatment group 2: 100 mg/kg daily i.p. starting 3rd day after MPTP-HCl, determined 14th day (FIG. 4)); “there is statistical significance” in the series on rats with PDD (Example 1 treatment group 3: 200 mg/kg daily i.p. starting 3rd day after MPTP-HCl, determined 14th day (FIG. 4)); “there is statistical significance” with rats with PDD (Example 2 treatment group 1: 10 mg/kg daily i.p. after MPTP-HCl injection, determined 14th day (FIG. 8)). Also, in the series with rats with PDD (Example 2 treatment group 2: 50 mg/kg daily i.p. after MPTP-HCl injection, determined 14th day (FIG. 8)), the “percentage of exploration time spent on object B in the fourth trial versus object A3 in the third trial” value is recorded as “there is statistical significance”. The “correct response rate compared to sham-operated group 1 (saline)” value with normal rats (sham-operated group 2: 100 mg/kg daily i.p. to 14th day) and with normal rats (sham-operated group 3: 200 mg/kg daily i.p. to 14th day) was “no statistical significance” throughout. Further, in series [1], the motor symptoms result is recorded as “useful in amelioration of motor symptoms”. Further, in series [1], the “neuroprotection of dopaminergic neurons” value is given as “neuroprotection of dopaminergic neurons”.

(Values after patent US9326988B2, “Treatment and/or prevention of parkinson's disease dementia with ceftriaxone” (CHUNG SHAN MEDICAL UNIVERSITY, priority 2012, dated 2016).)
